Assay [1] can be described thus: Antagonist activity at human CCR4 receptor assessed as inhibition of CCL22-induced chemotaxis by bioluminescent assay.
A short description of assay [2]: Antagonist activity at mouse CCR4 receptor assessed as inhibition of CCL22-induced chemotaxis by bioluminescent assay.

As usually defined, the IC50 is the concentration that gives 50% inhibition. As to `COc1cc2nc(N3CCC(N(C)CCCO)CC3)nc(Nc3ccc(Cl)cc3)c2cc1OC` [3-[(1-{4-[(4-Chlorophenyl)amino]-6,7-dimethoxyquinazolin-2-yl}piperidin-4-yl)(methyl)amino]propan-1-ol], the IC50 in assay [1] worked out at 280 nM.

Regarding `COc1cc2nc(N3CCC(N(C)CCCCO)CC3)nc(Nc3ccc(Cl)cc3)c2cc1OC` [4-[(1-{4-[(4-Chlorophenyl)amino]-6,7-dimethoxyquinazolin-2-yl}piperidin-4-yl)(methyl)amino]butan-1-ol], the IC50 in assay [1] is 360 nM.

Consider `COc1cc2nc(N3CCC(N4CCCC4)CC3)nc(Nc3ccc(F)c(F)c3)c2cc1OC` [N-(3,4-Difluorophenyl)-6,7-dimethoxy-2-(4-pyrrolidin-1-ylpiperidin-1-yl)quinazolin-4-amine], for which the IC50 was determined as 820 nM in assay [2] and 69 nM in assay [1].

With `COc1cc2nc(N3CCC(N4CCCC4)CC3)nc(Nc3ccc(F)cc3)c2cc1OC` [N-(4-Fluorophenyl)-6,7-dimethoxy-2-(4-pyrrolidin-1-ylpiperidin-1-yl)quinazolin-4-amine], the IC50 in assay [2] was found to be 710 nM; in assay [1] it was 320 nM.

Source of the values: BindingDB's records for doi:10.1016/j.bmc.2008.07.062 (Astellas Pharma, 2008).
